This series has as its system Thymidine Kinase (TK1). The series is described as follows: Kinetic constant Km for Thymidine Kinase (TK1). The format is ADME.

This is an account of results in ChEMBL document CHEMBL1132362, “Synthesis of 5-(carboranylalkylmercapto)-2'-deoxyuridines and 3-(carboranylalkyl)thymidines and their evaluation as substrates for human thymidine kinases 1 and 2” (J Med Chem, 1999).

As usually defined, the Km is the concentration of substrate that gives half-maximal velocity.

`Cc1cn([C@H]2C[C@H](O)[C@@H](CO)O2)c(=O)[nH]c1=O` [DOXRIBTIMINE]: the Michaelis-Menten constant (Km) was 1000 nM.
